Tests used:
[1] = test system: Jurkat cells; experiment: Comparison of DNA stains for staining live cells, post-sort viability and growth (Example 45); type: cell-based; settings: 5 μM
Procedure: Jurkat cells were suspended at 5×10^5 cells/ml in complete RPMI media with 10% FBS and stained with either 5 μM Compound 9, 5 μM Hoechst 33342, or 5 μM DRAQ5 for 30 minutes at 37° C. protected from light. A control sample was also prepared with no dye treatment. Cells were washed and resuspended at 1×10^7 cells/ml in Complete RPMI+10% FBS media for sorting. Approximately 2 million Jurkat cells were sorted for each treatment by gating on the main cell population by scatter using a BD FACS Aria cell sorter. Cells were washed and plated at 1×10^5 cells/ml in complete media and grown at 37 C with 5% CO2. Cell Viability was assayed using the LIVE/DEAD Viability/Cytotoxicity Kit at 1, 2, and 3 days post sort (as described in Example 44). Brightfield images of cell growth after 8 days cell growth were collected. […] The percent of live cells decreased similarly in both Compound 9 and Hoechst 33342 treatments.

[2] = test system: Live Jurkat cells; experiment: Comparison of DNA stains on cell viability (Example 44); type: cell-based; settings: for % Dead Cells: ethidium homodimer-1
Procedure: Live Jurkat cells are suspended at 5×10^5 cells/ml in complete RPMI media with 10% FBS. Four aliquots of 10 ml each of the cell suspension are made. A final concentration of 5 μM Hoechst 33342 (Invitrogen Corporation) is added to one aliquot, a final concentration of 5 μM DRAQ5 (Biostatus Limited, UK) is added to one aliquot, a final concentration of 5 μM Compound 9 is added to one aliquot, and one aliquot remains untreated as a control. All four aliquots are placed in a 37° C. waterbath for 30 minutes in protected from light. After the incubation, all cell suspensions are centrifuged, the cells are pelleted and the supernatant discarded. To each aliquot, 5 ml media is added. Four culture flasks are prepared by adding 35 ml media to each. One 5 ml aliquot of cells is added to one flask for each on the four cell suspensions aliquots. The flasks are placed in a 37° C. incubator with 5% CO2 in the dark for 72 hours. Each flask of cells is then gently mixed and cell suspension is removed for testing. The cell concentration and image is performed using the Cellometer instrument from Nexcelom. Percentage and absolute cell counts of live and dead cells for each treatment are determined using the LIVE/DEAD Viability/Cytotoxicity Kit (Invitrogen Corporation, Carlsbad, Calif.) with COUNTBRIGHT Absolute Counting Beads (Invitrogen Corporation). This involves adding one ml cell suspension to a 12×75 mm test tube and adding 2 μl of a 50 μM calcein AM solution to identify living cells and 4 μl of a 2 mM ethidium homodimer-1 solution to identify dead cells. The cell suspension is mixed and incubated for 20 minutes at room temperature protected from light. After the end of the incubation, 50 μl of well mixed COUNTBRIGHT absolute counting beads are added to each test tube. Each sample is run through the Becton Dickinson (BD) LSRII Flow Cytometer. Forward Scatter (FS) versus Side Scatter (SS) dual parameter plot is used to gate main cell population, and a separate gate is made around the bead population. Fluorescence is collected using 488 nm excitation laser with 530/30 bandpass and 610/20 bandpass emission filters. Markers on a dual parameter plot of calcein fluorescence versus ethidium homodimer-1 fluorescence is used to obtain percent of cells which are living and dead, as well as number of cell events recorded. By using the COUNTBRIGHT absolute counting beads assay, the absolute number of living and dead cells is calculated by using the equation: A/B×C/D=concentration of cells/μL (A=number of cell events, B=number of bead events, C=assigned bead count, D=volume of the sample in μl).

[3] = test system: Live Jurkat cells; experiment: DNA staining of live cells and cell cycle analysis using flow cytometry (Examples 42, 43); type: cell-based, human
Procedure: Live Jurkat cells are suspended at 5×10^5 cells/ml in each RPMI media with 10% FBS. Compound 19 is added to each of one mL cell suspensions at concentrations 5 μM, 10 μM, and 20 μM, and then incubated at 37° C. for 30 minutes while protected from light. Cells are run through the Becton Dickinson (BD) LSRII Flow Cytometer. Forward Scatter (FS) vs Side Scatter (SS) dual parameter plot is used to gate main cell population. Fluorescence is collected using […]: the 488 nm excitation laser with 780/60 bandpass emission filter, and using the 633 nm excitation laser with 780/60 bandpass emission filters, collecting 10,000 events at flow rate of ˜200 events/second. The data is further analyzed using MODFIT LT Flow Cytometry Modeling Software from Verity Software House, Inc. to look at ratio of G2/G1 and the % CV of G1 phase. […] Typical DNA content cell cycle histograms indicate G0G1 phase, S phase, and G2M phase, as obtained on the live cell gate, with all concentrations of the compound.
Live Jurkat cells suspended in RPMI media+10% FBS were stained with 5 μM, 10 μM, and 20 μM Compound 20 and analyzed with flow cytometry, as described in Example 42.

[4] = test system: HeLa and U2OS cells; type: cell-based
Procedure: HeLa and U2OS cells were stained with DRAQ5, Hoechst 33342, mitoxantrone, and Compound 9 over a range of concentrations to evaluate the effect of the tested DNA stains on cell proliferation over time. HeLa and U2OS cells were plated at 3000 cells/well and allowed to recover overnight before proceeding with dye incubations. Cells were incubated with 0, 1, 5 or 10 μM Compound 9, Hoechst 33342, mitoxantrone, and DRAQ5 for 30 minutes at culture conditions in DPBS with glucose, washed and then placed back into media at culture conditions. Plates were stained with 100 nM YOYO-1 (Invitrogen Corporation) before being fixed and stained with 1:1000 Hoechst 33342 (total cell number) at 24, 48 and 72 hours post dye incubation. Cells were imaged with the ArrayScan VTI immediately following staining and fixation. Data obtained were from repetitions of 4 wells/condition with 10 images taken per well.

[5] = 5 μM dye 30 min 37° C., then 72 hours culture
[6] = 20 μM, RPMI media+10% FBS, red 633 nm laser, 780/60 emission
[7] = 20 μM, RPMI media+10% FBS, blue 488 laser, 780/60 emission

CCOc1ccc(-c2nc3ccc(-c4nc5ccc(N6CCN(C)CC6)cc5[nH]4)cc3[nH]2)cc1 [Hoechst 33342]
post-sort viability / cytotoxicity ([1]; 30 min 37° C., sorted, 1, 2 and 3 days post sort): very similar in post-sort viability, but less than non-stained control cells | cell growth after sort ([1]; day 3 and 8 days post sort): beginning to divide again | Cell Count (Cellometer) [2, 5]: 2.6 × 10^5 cells/mL | Cell Count (Flow Cytommetry) [2, 5]: 0.9 × 10^5 cells/mL | % Living Cells ([2]; 5 μM dye 30 min 37° C., then 72 hours culture, calcein AM): 57.7% | % Dead Cells [2, 5]: 39.3% | effect of treatment on cell viability ([2]; 5 μM, 72 hours): maintained a majority of cells as living

CN(C)CCNC(=O)CNc1ccc(N)c2c1C(=O)c1c(O)ccc(O)c1C2=O [Compound 20]
% CV of G1-phase [3, 6]: 6.41% | G2/G1 ratio [3, 6]: 1.84

CN(C)CCNC(=O)CNc1ccc(O)c2c1C(=O)c1c(N)ccc(O)c1C2=O [Compound 19]
% CV of G1-phase [3, 7]: 8.0% | G2/G1 ratio [3, 7]: 1.86 | % CV of G1-phase [3, 6]: 6.43% | G2/G1 ratio [3, 6]: 1.83 | % CV of G1-phase ([3]; 5, 10, 20 μM, MODFIT analysis): < 8%

CN(C)CCNc1ccc(O)c2c1C(=O)c1c(O)ccc(NCCN(C)C)c1C2=O [DRAQ5]
membrane permeability indicated by YOYO-1 [4]: high membrane permeability | % Dead Cells [2, 5]: 95.7%

From patent publication US9709557B2, “Anthraquinone based near IR emitting compounds and uses thereof” (LIFE TECHNOLOGIES CORPORATION, priority 2008, dated 2017)
